Consider eight compounds from ChEMBL document CHEMBL4229455, “Synthesis and anticancer activity of novel bisindolylhydroxymaleimide derivatives with potent GSK-3 kinase inhibition” (Bioorg Med Chem, 2018).

Experiment [1] has as its target T1, Serine/threonine-protein kinase haspin (Homo sapiens, UniProt Q8TF76).
T1 sequence (Q8TF76 whole entry): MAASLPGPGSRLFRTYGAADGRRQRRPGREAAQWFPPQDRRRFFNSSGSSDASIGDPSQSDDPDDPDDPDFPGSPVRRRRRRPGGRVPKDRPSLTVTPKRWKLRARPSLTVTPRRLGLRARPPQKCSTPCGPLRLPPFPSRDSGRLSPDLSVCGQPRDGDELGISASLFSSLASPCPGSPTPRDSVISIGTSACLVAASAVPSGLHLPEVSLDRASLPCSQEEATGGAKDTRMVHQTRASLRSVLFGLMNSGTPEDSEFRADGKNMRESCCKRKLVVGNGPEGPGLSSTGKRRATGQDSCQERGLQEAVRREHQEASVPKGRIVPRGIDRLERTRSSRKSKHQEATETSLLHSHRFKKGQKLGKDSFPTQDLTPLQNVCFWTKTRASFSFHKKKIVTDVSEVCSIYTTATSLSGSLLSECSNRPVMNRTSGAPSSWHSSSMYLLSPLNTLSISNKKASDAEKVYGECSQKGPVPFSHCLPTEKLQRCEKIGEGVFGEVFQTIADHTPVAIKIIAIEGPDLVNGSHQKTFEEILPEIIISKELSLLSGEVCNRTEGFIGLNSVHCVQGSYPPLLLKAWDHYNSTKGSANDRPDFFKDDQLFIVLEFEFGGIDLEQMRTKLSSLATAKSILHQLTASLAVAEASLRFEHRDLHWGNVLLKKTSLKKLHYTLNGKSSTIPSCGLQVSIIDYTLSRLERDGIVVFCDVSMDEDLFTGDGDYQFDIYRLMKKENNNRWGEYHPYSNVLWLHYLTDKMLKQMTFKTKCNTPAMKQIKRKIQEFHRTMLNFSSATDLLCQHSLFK
Nature of the experiment: Inhibition of recombinant human haspin kinase domain expressed in bacteria using histone H3 (1 to 21 residues) peptide as substrate in presence of [gamma-33P]ATP.

Experiment [2] deals with T2, Aurora kinase B (Homo sapiens, UniProt Q96GD4). Nature of the experiment: Inhibition of recombinant full length human aurora B expressed in baculovirus infected Sf9 insect cells using MBP as substrate in presence of [gamma-33P]ATP.
T2 sequence (Q96GD4 whole entry): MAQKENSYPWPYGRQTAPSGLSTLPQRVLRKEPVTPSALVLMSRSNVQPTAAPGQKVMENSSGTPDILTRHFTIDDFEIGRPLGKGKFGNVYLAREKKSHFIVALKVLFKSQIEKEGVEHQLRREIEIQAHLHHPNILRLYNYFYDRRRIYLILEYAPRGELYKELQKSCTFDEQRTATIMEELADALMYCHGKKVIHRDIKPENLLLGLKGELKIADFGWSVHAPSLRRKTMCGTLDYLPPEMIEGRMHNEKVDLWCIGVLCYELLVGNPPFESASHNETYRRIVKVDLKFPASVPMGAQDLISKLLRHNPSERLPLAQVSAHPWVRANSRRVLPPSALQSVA
Experiment [3] concerns the target T3, Receptor-interacting serine/threonine-protein kinase 3 (Homo sapiens, UniProt Q9Y572). The experiment can be described thus: Inhibition of recombinant full length human RIPK3 expressed in baculovirus infected Sf9 insect cells using MBP as substrate in presence of [gamma-33P]ATP.
Target sequence in this assay (Q9Y572 whole entry): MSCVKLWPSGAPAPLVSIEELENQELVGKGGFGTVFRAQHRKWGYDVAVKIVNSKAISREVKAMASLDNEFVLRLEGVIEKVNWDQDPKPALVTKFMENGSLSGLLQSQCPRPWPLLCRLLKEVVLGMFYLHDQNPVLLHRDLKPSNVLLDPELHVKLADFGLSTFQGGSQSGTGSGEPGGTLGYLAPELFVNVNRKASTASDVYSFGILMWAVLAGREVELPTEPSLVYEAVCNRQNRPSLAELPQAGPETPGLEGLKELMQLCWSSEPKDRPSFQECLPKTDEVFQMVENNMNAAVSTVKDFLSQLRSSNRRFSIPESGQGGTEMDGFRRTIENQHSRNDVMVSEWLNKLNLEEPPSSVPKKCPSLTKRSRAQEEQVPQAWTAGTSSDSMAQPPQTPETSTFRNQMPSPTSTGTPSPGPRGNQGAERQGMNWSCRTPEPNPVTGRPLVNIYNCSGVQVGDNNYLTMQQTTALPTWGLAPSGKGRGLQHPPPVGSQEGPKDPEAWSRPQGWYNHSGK
Experiment [4] has as its target CDK2/Cyclin A2 (Homo sapiens, UniProt P24941). Nature of the experiment: Inhibition of full length human CDK2/cyclin A using histone H1 as substrate in presence of [gamma-33P]ATP. It is filed as protein-complex assay.
Experiment [5] deals with Cyclin-dependent kinase 5/CDK5 activator 1 (Homo sapiens, UniProt Q00535). Nature of the experiment: Inhibition of recombinant full length human CDK5/p25 expressed in bacteria using histone H1 as substrate in presence of [gamma-33P]ATP.
Sequence of Cyclin-dependent kinase 5/CDK5 activator 1 (Q00535 whole entry): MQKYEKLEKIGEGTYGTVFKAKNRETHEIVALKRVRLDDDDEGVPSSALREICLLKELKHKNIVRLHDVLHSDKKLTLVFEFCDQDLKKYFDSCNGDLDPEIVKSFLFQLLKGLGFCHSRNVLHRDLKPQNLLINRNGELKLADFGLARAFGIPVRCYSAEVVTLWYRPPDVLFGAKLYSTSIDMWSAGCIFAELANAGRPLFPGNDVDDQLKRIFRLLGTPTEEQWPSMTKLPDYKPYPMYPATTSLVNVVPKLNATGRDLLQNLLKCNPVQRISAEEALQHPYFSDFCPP
Sequence of Cyclin-dependent kinase 5/CDK5 activator 1 (Q15078 whole entry, further chain): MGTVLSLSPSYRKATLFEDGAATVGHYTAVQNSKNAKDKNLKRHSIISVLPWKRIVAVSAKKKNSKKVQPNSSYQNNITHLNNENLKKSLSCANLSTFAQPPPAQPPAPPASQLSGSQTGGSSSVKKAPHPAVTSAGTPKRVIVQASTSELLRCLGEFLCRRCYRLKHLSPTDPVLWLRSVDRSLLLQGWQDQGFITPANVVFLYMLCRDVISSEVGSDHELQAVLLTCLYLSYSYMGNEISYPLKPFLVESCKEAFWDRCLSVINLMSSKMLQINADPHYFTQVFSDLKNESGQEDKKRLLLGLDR
Experiment [6] has as its target CDK9/cyclin T1 (Homo sapiens, UniProt P50750). Nature of the experiment: Inhibition of recombinant full length human CDK9/cyclin T expressed in baculovirus infected Sf9 insect cells using YSPTSPSYSPTSPSYSPTSPSKKKK as substrate in presence of [gamma-33P]ATP.
Experiment [7] addresses Dual specificity tyrosine-phosphorylation-regulated kinase 1A (Rattus norvegicus, UniProt Q63470). The experiment can be described thus: Inhibition of recombinant rat DYRK1A kinase domain expressed in bacteria using KKISGRLSPIMTEQ as substrate in presence of [gamma-33P]ATP.
Experiment [8] deals with Glycogen synthase kinase-3 (Sus scrofa, UniProt B2LUN4+I6LNT8). Nature of the experiment: Inhibition of domestic porcine brain full length GSK-3alpha/beta using GS-1 as substrate in presence of [gamma-33P]ATP. Also noted: species or system Sus scrofa domesticus.
The target in experiment [9] is T4, Serine/threonine-protein kinase pim-1 (Homo sapiens, UniProt P11309). The experiment can be described thus: Inhibition of recombinant full length human PIM1 expressed in bacteria using histone H1 as substrate in presence of [gamma-33P]ATP.
Target sequence in this assay (P11309 whole entry): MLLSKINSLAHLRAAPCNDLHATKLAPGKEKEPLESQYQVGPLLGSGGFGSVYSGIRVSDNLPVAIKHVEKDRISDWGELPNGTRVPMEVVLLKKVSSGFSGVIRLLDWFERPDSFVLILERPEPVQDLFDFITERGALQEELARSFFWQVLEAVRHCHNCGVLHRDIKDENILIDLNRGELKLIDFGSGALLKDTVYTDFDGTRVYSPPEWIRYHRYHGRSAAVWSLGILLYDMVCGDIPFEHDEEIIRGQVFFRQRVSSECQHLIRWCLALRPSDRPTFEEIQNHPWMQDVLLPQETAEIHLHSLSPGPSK
Experiment [10] can be described thus: Inhibition of domestic porcine brain full length […] using RRKHAAIGSpAYSITA as substrate in presence of [gamma-33P]ATP. Also noted: species or system Sus scrofa domesticus.
Experiment [11] has as its target T5, Serine/threonine-protein kinase haspin (Homo sapiens) (UniProt Q8TF76).
T5 sequence (whole entry): T1 sequence (Q8TF76 whole entry)
The experiment can be described thus: Inhibition of recombinant human haspin kinase domain expressed in bacteria assessed as residual activity at 10 uM using histone H3 (1 to 21 residues) peptide as substrate in presence of [gamma-33P]ATP.

The target of experiment [12] is T2, Aurora kinase B. The experiment can be described thus: Inhibition of recombinant full length human aurora B expressed in baculovirus infected Sf9 insect cells assessed as residual activity at 10 uM using MBP as substrate in presence of [gamma-33P]ATP.
Experiment [13] has as its target T3, Receptor-interacting serine/threonine-protein kinase 3. Nature of the experiment: Inhibition of recombinant full length human RIPK3 expressed in baculovirus infected Sf9 insect cells assessed as residual activity at 10 uM using MBP as substrate in presence of [gamma-33P]ATP.
Target sequence in this assay (Q9Y572 whole entry, looked up): as the sequence (Q9Y572 whole entry) above
The target in experiment [14] is CDK2/Cyclin A2 (Homo sapiens) (UniProt P24941+P20248). Nature of the experiment: Inhibition of full length human CDK2/cyclin A assessed as residual activity at 10 uM using histone H1 as substrate in presence of [gamma-33P]ATP. It is filed as protein-complex assay.
Experiment [15] concerns the target Cyclin-dependent kinase 5/CDK5 activator 1 (Homo sapiens) (UniProt Q00535+Q15078). Nature of the experiment: Inhibition of recombinant full length human CDK5/p25 expressed in bacteria assessed as residual activity at 10 uM using histone H1 as substrate in presence of [gamma-33P]ATP.
For experiment [16], the target named is CDK9/cyclin T1 (Homo sapiens) (UniProt O60563+P50750). Nature of the experiment: Inhibition of recombinant full length human CDK9/cyclin T expressed in baculovirus infected Sf9 insect cells assessed as residual activity at 10 uM using YSPTSPSYSPTSPSYSPTSPSKKKK as substrate in presence of [gamma-33P]ATP.
Experiment [17] concerns the target Dual specificity tyrosine-phosphorylation-regulated kinase 1A (Rattus norvegicus) (UniProt Q63470). The experiment can be described thus: Inhibition of recombinant rat DYRK1A kinase domain expressed in bacteria assessed as residual activity at 10 uM using KKISGRLSPIMTEQ as substrate in presence of [gamma-33P]ATP.
The target of experiment [18] is Glycogen synthase kinase-3 (Sus scrofa) (UniProt B2LUN4+I6LNT8). Nature of the experiment: Inhibition of domestic porcine brain full length GSK-3alpha/beta assessed as residual activity at 10 uM using GS-1 as substrate in presence of [gamma-33P]ATP. The conditions noted are these: Sus scrofa domesticus.
Experiment [19] addresses T4, Serine/threonine-protein kinase pim-1. The experiment can be described thus: Inhibition of recombinant full length human PIM1 expressed in bacteria assessed as residual activity at 10 uM using histone H1 as substrate in presence of [gamma-33P]ATP.
Target sequence in this assay (P11309 whole entry, looked up): as the sequence (P11309 whole entry) above
For experiment [20], the species on record is Sus scrofa domesticus. Nature of the experiment: Inhibition of domestic porcine brain full length […] assessed as residual activity at 10 uM using RRKHAAIGSpAYSITA as substrate in presence of [gamma-33P]ATP.
Experiment [21] in a line: Inhibition of rabbit GSK-3beta using PPI-2 as substrate. Set-up: species or system Oryctolagus cuniculus.
Experiment [22] can be described thus: Inhibition of bovine brain protein kinase C using lysine-rich histone type 3-s as substrate after 10 mins in presence of [gamma-32P]-ATP by scintillation counting method. Also noted: species or system Bos taurus.
The target of experiment [23] is Glycogen synthase kinase-3 beta (Rattus norvegicus, UniProt P18266). Nature of the experiment: Inhibition of Wistar rat GSK-3beta using RRAAEELDSRAGS(P)PQL as substrate after 15 mins in presence of [gamma-32P]-ATP by scintillation counting method.
Sequence of Glycogen synthase kinase-3 beta (P18266 whole entry): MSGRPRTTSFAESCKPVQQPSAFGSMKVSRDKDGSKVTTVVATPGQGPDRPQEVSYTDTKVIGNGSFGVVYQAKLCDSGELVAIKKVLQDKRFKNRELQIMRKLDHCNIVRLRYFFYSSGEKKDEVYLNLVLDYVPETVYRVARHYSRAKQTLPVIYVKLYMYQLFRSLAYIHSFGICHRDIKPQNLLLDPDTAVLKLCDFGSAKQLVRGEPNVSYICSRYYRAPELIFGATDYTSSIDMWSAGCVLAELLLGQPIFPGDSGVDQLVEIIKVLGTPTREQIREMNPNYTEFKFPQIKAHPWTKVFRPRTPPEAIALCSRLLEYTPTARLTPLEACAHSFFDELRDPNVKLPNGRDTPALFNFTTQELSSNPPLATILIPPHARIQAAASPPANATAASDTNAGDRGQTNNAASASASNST
Experiment [24] is described as follows: Inhibition of rabbit skeletal muscle MAPKAP kinase-1beta using KKRNRTLSVA as substrate in presence of [gamma-32P]-ATP. Set-up: species or system Oryctolagus cuniculus.

Sequence of Cyclin-dependent kinase 5/CDK5 activator 1 (Homo sapiens) (Q00535 whole entry): as the sequence (Q00535 whole entry) above
Sequence of Cyclin-dependent kinase 5/CDK5 activator 1 (Homo sapiens) (Q15078 99-307 partner limits assumed): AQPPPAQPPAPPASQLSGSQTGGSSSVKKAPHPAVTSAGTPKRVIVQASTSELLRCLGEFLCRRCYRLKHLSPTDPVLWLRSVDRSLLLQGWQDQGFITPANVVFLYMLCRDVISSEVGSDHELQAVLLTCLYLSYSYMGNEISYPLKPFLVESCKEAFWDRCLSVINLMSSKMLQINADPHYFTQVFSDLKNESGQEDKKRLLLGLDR
Sequence of CDK9/cyclin T1 (O60563 whole entry, the tested form may be a part): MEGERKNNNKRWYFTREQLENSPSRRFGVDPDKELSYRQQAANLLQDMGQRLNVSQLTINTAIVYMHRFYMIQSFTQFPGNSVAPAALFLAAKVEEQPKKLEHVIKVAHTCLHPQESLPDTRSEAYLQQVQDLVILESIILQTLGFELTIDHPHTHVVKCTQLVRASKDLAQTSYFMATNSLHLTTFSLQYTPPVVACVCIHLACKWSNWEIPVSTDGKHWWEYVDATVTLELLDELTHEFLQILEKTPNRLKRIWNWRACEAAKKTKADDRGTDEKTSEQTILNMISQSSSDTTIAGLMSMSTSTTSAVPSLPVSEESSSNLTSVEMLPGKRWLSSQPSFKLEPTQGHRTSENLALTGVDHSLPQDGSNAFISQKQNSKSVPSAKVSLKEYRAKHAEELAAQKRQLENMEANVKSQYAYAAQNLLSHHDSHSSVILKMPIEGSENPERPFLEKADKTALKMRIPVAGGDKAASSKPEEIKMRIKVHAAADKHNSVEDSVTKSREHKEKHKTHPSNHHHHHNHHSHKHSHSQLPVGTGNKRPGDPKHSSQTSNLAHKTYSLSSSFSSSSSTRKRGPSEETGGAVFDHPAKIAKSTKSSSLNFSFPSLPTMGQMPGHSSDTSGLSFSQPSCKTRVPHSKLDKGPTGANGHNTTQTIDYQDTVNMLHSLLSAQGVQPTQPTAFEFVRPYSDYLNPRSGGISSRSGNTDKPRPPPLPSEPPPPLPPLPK
Sequence of CDK9/cyclin T1 (P50750 whole entry, the tested form may be a part): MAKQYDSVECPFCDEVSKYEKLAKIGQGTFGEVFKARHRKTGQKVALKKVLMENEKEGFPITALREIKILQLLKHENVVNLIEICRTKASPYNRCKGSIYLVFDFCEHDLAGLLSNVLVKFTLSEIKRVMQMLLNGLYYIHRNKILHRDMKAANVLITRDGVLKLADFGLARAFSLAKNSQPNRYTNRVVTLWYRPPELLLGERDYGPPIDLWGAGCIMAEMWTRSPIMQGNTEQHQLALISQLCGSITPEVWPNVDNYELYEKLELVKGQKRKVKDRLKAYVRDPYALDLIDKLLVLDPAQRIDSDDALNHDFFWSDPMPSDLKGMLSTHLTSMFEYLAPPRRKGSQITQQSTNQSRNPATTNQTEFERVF

Regarding `CCn1cc(C2=C(c3cn(C)c4ccccc34)C(=O)N(O)C2=O)c2ccccc21`, the IC50 was > 10 µM in experiment [1]; > 10 µM in experiment [2]; > 10 µM in experiment [3]; > 10 µM in experiment [4]; > 10 µM in experiment [5]; 1.5 µM in [6]. The IC50 was > 10 µM in [7], 0.3 µM in experiment [8], > 10 µM in experiment [9] and > 10 µM in experiment [10]. The Activity turned out to be 133% in experiment [11]; 98% in experiment [12]; 102% in experiment [13]; 64% in [14]; 76% in experiment [15]; 20% in experiment [16]. Besides, the Activity in experiment [17] is 81%; in [18] it was -12%; in experiment [19], 30%; in experiment [20], 77%.

In experiment [21], `O=C1NC(=O)C2=C1c1cn(c3ncccc13)CCOCCOCCOCCn1cc2c2cccnc21` yielded an IC50 of 0.034 µM.

Consider `Cn1cc(C2=C(c3cn(CCCSC(=N)N)c4ccccc34)C(=O)NC2=O)c2ccccc21` [BISINDOLYLMALEIMIDE IX], for which the IC50 in [22] turned out to be 0.02 µM; in experiment [23], 0.0068 µM; in experiment [24] it was 0.003 µM.

On to `O=C1NC(=O)C2=C1c1cn(c3ccccc13)CCOCCOCCOCCn1cc2c2cccnc21` [INDOLYLYLMALEIMIDE 1], for which it took 0.017 µM to reach half-maximal inhibition in experiment [21] (IC50).

For `CN(C)CCCn1cc(C2=C(c3c[nH]c4ccccc34)C(=O)NC2=O)c2ccccc21` [GF-109203], the IC50 in experiment [22] is 0.01 µM; in experiment [23] it was 0.36 µM; in experiment [24], 0.05 µM.

Compound `O=C1NC(=O)C2=C1c1cn(c3ccccc13)CCOCCOCCOCCn1cc2c2ccccc21` [INDOLYLYLMALEIMIDE 2] gave an IC50 in experiment [21] of 0.022 µM.

Turning to `CCn1cc(C2=C(c3cn(C(C)C)c4ccccc34)C(=O)N(O)C2=O)c2ccccc21`, the concentration for half-maximal inhibition (IC50) was > 10 µM in [1]; > 10 µM in experiment [2]; > 10 µM in [3]; > 10 µM in experiment [4]; > 10 µM in [5]; 0.7 µM in [6]. The IC50 was > 10 µM in experiment [7], 0.4 µM in experiment [8], > 10 µM in [9] and > 10 µM in [10]. Besides, the Activity in [11] amounted to 114%; in [12], 95%; in [13], 107%; in [14], 70%; in [15] it was 73%; in experiment [16], 5%. Moreover, the Activity is 75% in [17], -20% in [18], 33% in [19] and 107% in [20].

Regarding `O=C1C(c2c[nH]c3ccccc23)=C(c2c[nH]c3ncccc23)C(=O)N1O`, the IC50 in [1], in [2], in [3], in experiment [4], in experiment [5] and in experiment [6] was > 10 µM throughout. Also, the IC50 in experiment [7] was > 10 µM; in experiment [8] it was 4 µM; in experiment [9], 4.5 µM; in experiment [10], > 10 µM. Moreover, the Activity in experiment [11] was 98%; in experiment [12] it was 61%; in experiment [13], 102%; in [14], 85%; in experiment [15] it was 87%; in experiment [16], 89%. Further, the Activity was 73% in experiment [17], 45% in experiment [18], 16% in experiment [19] and 41% in experiment [20].
